From patent US20150276760A1, “Method for Screening a Compound Capable of Inhibiting the Notch1 Transcriptional Activity” (INSERM (institut National de la Sante et de la Recherche …, priority 2012, published 2015)

Experiments:
[1] = system: ICN1-induced activation of p6XCBS-luc; experiment: Notch-responsive reporter assay (p6XCBS-luc) in HeLa cells; format: cell-based
Method: HeLa cells were co-transfected with 1 μg of a Notch-responsive firefly luciferase reporter containing 6 CSL-binding sites (p6XCBS-luc), 100 ng of TK-Renilla-luciferase vector (transfection control) and various amount (0.1-0.3-1 μg) of the MigR1-ICN1 expression vector. Transfections were performed in 6-wells plates using JetPEI reagent (Polyplus) according to manufacturer's instruction. Firefly luciferase activity was measured 24 hours post-transfection and normalized to Renilla luciferase expression. The values in the figures are Relative Luciferase Units (RLU) represented as fold induction over the luciferase activity measured in the absence of ICN1 (cells transfected with p6XCBS-luc and an empty vector).

[2] = system: Notch-induced HES1 transcription in U937 cells; experiment: Ligand (Delta-like 4)-mediated HES1 activation in U937 cells; settings: recombinant DL-4 Notch ligand
[3] = system: HES1, HEY1 and DTX1 expression in U937 cells; experiment: Notch-target gene expression in U937 cells without Notch activation (Q-RT-PCR); settings: TCP 1 mM, S2101 30 μM
[4] = system: Notch-activation complex (ICN1-CSL-MAML1); experiment: Immunopurification / coimmunoprecipitation from SupT1 nuclear extracts (western blot); set-up: species or system human
Method: After two step affinity chromatography, protein complexes containing both tagged-proteins were peptide eluted and analyzed by western blot. For endogenous protein immunoprecipitations, nuclear extracts (500 μg-1 mg) were incubated with antibodies (1-2 μg) for 4 hr, followed by addition of 10 μL protein G Sepharose beads (Fast flow, Sigma) for 45 min before washing five times with 800 μL of buffer B015 in spin columns (Pierce).
Cells were lysed in lysis buffer (50 mM Tris-HCl, 120 mM NaCl, 5 mM EDTA, 0.5% NP-40 and PMSF) and briefly sonicated. Cell lysates and immunoprecipitates were boiled in SDS sample buffer and resolved on a 7% SDS-PAGE gel (Biorad). Proteins were liquid-transferred (Biorad) to nitrocellulose membrane in transfer buffer (20% methanol, 25 mM Tris, 192 mM Glycine, 0.037% SDS) during 90 min at 100V.

[5] = system: ICN1-binding sites of Notch-target genes; experiment: Chromatin immunoprecipitation (ChIP) in SupT1 cells; format: cell-based, human
Method: For ChIP experiments, 6×10^7 cells were cross-linked for 10 min with 1% formaldehyde (sigma) at room temperature. The cross-linking reaction was stopped by adding glycine to a final concentration of 0.125 M for 10 min at room temperature. Cells were washed twice with cold PBS and incubated on ice for 7 min in 2 mL of buffer containing 15 mM Tris-HCl (pH 7.4), 0.3 M sucrose (sigma), 60 mM KCl, 15 mM NaCl, 5 mM MgCl2, 0.1 mM EGTA and 0.1% NP-40. Each cell suspension was then layered over 8 mL sucrose cushion (15 mM Tris-HCl, 1.2 M sucrose, 60 mM KCl, 15 mM NaCl, 5 mM MgCl2 and 0.1 mM EGTA) and centrifuged at 10.000 g for 20 min at 4° C. Nuclear pellet was lysed with 1 mL lysis buffer (50 mM Tris-HCl pH 8, 10 mM EDTA, 1% SDS) complemented with Protease Inhibitor Cocktail (Roche). Chromatin was sonicated to generate DNA-fragments of approximately 300 to 500 bp in an ultra sonicator water bath (Bioruptor, Diagenode) using ten cycles of 30 s/on and 30 s/off. After centrifugation at 13.000 g for 20 min, an aliquot of sonicated DNA was reverse-crosslinked by addition of 250 mM NaCl and incubation at 65° C. for 6 h. DNA was extracted by phenol-chloroform, quantified using nanodrop and run on a 1% agarose gel to confirm DNA fragment size. The antibodies were pre-bound to Invitogen Dynal magnetic beads (Protein A or G beads) in PBS containing BSA (5 mg/mL) and chromatin was pre-cleared with beads for 4 h at 4° C. Immunoprecipitation was performed using 20 μg of chromatin and 2-3 μg of antibody coupled to 15 μL of beads in ChIP buffer (20 mM Tri-HCl pH 8, 150 mM NaCl, 2 mM EDTA, and 1% Triton X-100) complemented with Protease Inhibitor Cocktail. After overnight incubation at 4° C., beads were washed 4 times with wash buffer 1 (20 mM Tri-HCl pH 8, 150 mM NaCl, 2 mM EDTA, 1% Triton X-100 and 0.1% SDS) and 4 times with wash buffer 2 (20 mM Tri-HCl pH 8, 500 mM NaCl, 2 mM EDTA, 1% Triton X-100 and 0.1% SDS) using the DynaMag-2 magnet (Invitogen). Elution of immunoprecipitated DNA was performed in buffer containing 1% SDS and 100 mM NaHCO3. Crosslinking was reversed by incubation at 65° C. and proteins were degraded by addition of proteinase K (Sigma). Eluted DNA and 10% of input DNA were purified using phenol-chloroform extraction followed by isopropanol precipitation or using QIAquick PCR purification (Qiagen), according to the manufacturer instructions. Resultant DNA was dissolved in 60 μL of water containing 10 mM Tris-HCl pH 8. […] PCR measurements were performed in duplicate.

[6] = system: Notch-target genes in pre-T cells; experiment: ChIP in T-cell precursors from in vitro T-cell differentiation; format: cell-based, human; settings: GSI 5 μM, 2 days
Method: For ChIP experiments, 6×10^7 cells were cross-linked for 10 min with 1% formaldehyde (sigma) at room temperature. The cross-linking reaction was stopped by adding glycine to a final concentration of 0.125 M for 10 min at room temperature. Cells were washed twice with cold PBS and incubated on ice for 7 min in 2 mL of buffer containing 15 mM Tris-HCl (pH 7.4), 0.3 M sucrose (sigma), 60 mM KCl, 15 mM NaCl, 5 mM MgCl2, 0.1 mM EGTA and 0.1% NP-40. Each cell suspension was then layered over 8 mL sucrose cushion (15 mM Tris-HCl, 1.2 M sucrose, 60 mM KCl, 15 mM NaCl, 5 mM MgCl2 and 0.1 mM EGTA) and centrifuged at 10.000 g for 20 min at 4° C. Nuclear pellet was lysed with 1 mL lysis buffer (50 mM Tris-HCl pH 8, 10 mM EDTA, 1% SDS) complemented with Protease Inhibitor Cocktail (Roche). […] DNA was extracted by phenol-chloroform, quantified using nanodrop and run on a 1% agarose gel to confirm DNA fragment size. […]
CD34+ cells from human umbilical cord blood samples were sorted (Stemcell technologies) (≧95% purity) and cultured on OP9-DL1 stromal cells in αMEM media containing FLT3L (5 ng/ml), and IL7 (5 ng/ml) for 16 days. At day 16, most progenitors (˜90%) were engaged to the T-cell lineage (pre-T cells) as determined by the expression of CD5 and CD1a. pre-T-cells were cultured for 2 additional days on OP9-DL1 cells in presence or absence of GSI (5 μM).

monoamine oxidases = settings: compared with TCP; cited from earlier work
[7] = system: Notch-responsive genes in SupT1 cells; experiment: Notch-responsive gene expression in GSI-treated SupT1 cells
[8] = system: Notch-target genes in T-ALL cells; experiment: Notch-target gene expression in T-ALL cell lines (Q-RT-PCR)
[9] = system: SupT1, HPB-ALL, TALL1 and DND41; experiment: Cell count proliferation assay of T-ALL cell lines; format: cell-based, human; settings: shRNA knockdown
Method: (§1) The following antibodies were used for flow cytometry: CD127-PE clone R34.34 and the IgG1-PE (from Beckman Coulter). Flow cytometry was performed on a BD FACSCalibur or MACSQUANT cytometer (Miltenyi). For cell proliferation assays, cells were plated at 2×10^5/mL in triplicate. Proliferation of shRNA-transduced T-ALL cells was followed by cell counting using the MACSQUANT cytometer (gated on live cells). Flow-cytometric cell cycle analysis was performed by staining DNA content of T-ALL cell lines using DAPI. SupT1 cells were also analyzed with EdU-DAPI staining to precisely define the percentage of cells at the G0/G1 phase. […] Cells were washed with PBS and fixed with PBS-4% PFA for 10 minutes at room temperature. After permeabilization, EdU incorporation was detected following the manufacturer's instructions (Click-iT, invitrogen) and total DNA content was measured using DAPI.

T-ALL cell lines = experiment: Flow-cytometric cell cycle analysis of T-ALL cell lines; format: cell-based, human; settings: shRNA knockdown
Method: as §1

SupT1 xenograft tumor = experiment: Subcutaneous xenograft tumor model; format: in vivo; settings: SupT1 cells expressing shRNA, SCID mice
Method: Female SCID mice (C.B.-17/IcrHan™Hsd-Prkdcscid) were obtained from Harlan Laboratories (Gannat, France). Animals were maintained in specific pathogen-free animal housing at the Center for Exploration and Experimental Functional Research (CERFE, Evry, France) animal facility. […] 72 hours post-infection, cells were selected with 2 μg/mL puromycin for 72 hours. At this point, the cells were maintained in fresh media for 2 days prior to injection into animals. Prior injection, cells were washed and resuspended in DMEM: 50% Matrigel (BD Pharmingen). 5×10^6 cells […] were injected to each mouse by subcutaneous route in the right flank (n=5 per group). Tumor volume was evaluated by measuring tumor diameters, with a calliper, three times a week during the follow-up period (23 days). The formula TV (mm^3)=[length (mm)×width (mm)2]/2 was used, where the length and the width are the longest and the shortest diameters of the tumor, respectively.

Compound: N[C@@H]1C[C@H]1c1ccccc1 (racemic) [TCP, tranylcypromine]
- ICN1-induced activation of the Notch-responsive reporter (p6XCBS-luc) [1]: impaired
- Notch-induced HES1 activation [2]: reduced HES1 activation
- HES1, HEY1 and DTX1 expression [3]: increased

Compound: C[C@H](NC(=O)Cc1cc(F)cc(F)c1)C(=O)N[C@H]1N=C(c2ccccc2)c2ccccc2N(C)C1=O [GSI]
- MAML1 association with CSL, LSD1, PB1 and BRG1 ([4]; SupT1, GSI 500 nM, 8 hours): severely altered
- binding of PHF8 and AF4p12 to MAML1 ([4]; SupT1, GSI 500 nM, 8 hours): only marginally reduced
- LSD1 binding to endogenous MAML1 and ICN1 ([4]; SupT1 cells treated with DMSO or GSI): strongly reduced
- H3K27me2 mark at IL7R and DTX1 loci ([5]; SupT1): increase
- CSL and LSD1 binding ([5]; SupT1, ICN1-binding sites): did not significantly affect
- ICN1 and MAML1 on chromatin ([5]; SupT1, ICN1-binding sites): released
- recruitment of PBAF, PHF8 and AF4p12 ([5]; SupT1, ICN1-binding sites): reduced
- RNAPII recruitment to Notch-target genes [6]: impaired

Compound: NC1CC1c1cc(F)cc(F)c1OCc1ccccc1 (stereo not shown) [S2101]
- effect on monoamine oxidases (monoamine oxidases): much weaker effect
- expression of Notch-responsive genes [7]: depression of Notch-responsive genes
- expression of the control S14 gene [7]: not affected
- Notch-target genes expression on LSD1 inhibitor treatment [8]: dose-dependent repression
- Notch-induced HES1 activation [2]: reduced HES1 activation
- HES1, HEY1 and DTX1 expression [3]: increased

Compound: PHF8 shRNA: shRNA targeting PHF8, SEQ ID NO: 1; pSUPER retroviral vector (GCTTCATGATCGAGTGTGACA)
- proliferation [9]: marked reduction
- cell-cycle progression in MOLT4 and H9 (T-ALL cell lines; Notch-independent T-ALL cell lines): did not significantly affect
- cell cycle in NOTCH1-dependent T-ALL cells (T-ALL cell lines): G0/G1 cell-cycle arrest
- tumor establishment (SupT1 xenograft tumor): did not establish tumors
- Notch-mediated expression of c-MYC ([8]; shRNA knockdown): suppressed
